The source of these data is US20180371044A1, “PEPTIDOMIMETIC MACROCYCLES” (Aileron Therapeutics, Inc., priority 2015, published 2018).

The nature of series [1]: Solubility by measuring turbidity (OD600) in human plasma. It counts as physicochemical. The procedure:
In some embodiments, a peptidomimetic macrocycle can be prepared based on solubility of the polypeptide, for example if the prepared peptidomimetic macrocycle is determined to be soluble based on visual examination of the turbidity of a solution of the polypeptide. In some embodiments, an aqueous solubility of the peptidomimetic macrocycle is determined by evaluating the turbidity of a solution comprising the peptidomimetic macrocycle. In some embodiments, a plasma solubility of the peptidomimetic macrocycle is determined by evaluating the turbidity of a solution comprising the peptidomimetic macrocycle.
Increasing amounts of SP-3 and SP-133 were added to human plasma. The OD600 of each of the solutions was then measured.

Series [2] can be described thus: Plasma compatibility. It counts as physicochemical. The procedure: The plasma compatibility of exemplary peptidomimetic macrocycles was also determined. Peptidomimetic macrocycles with a plasma compatability value (PC) that is greater than 0.1 were determined as being plasma compatible.
For series [3], the target named is T1, VIPR1 (Vasointestinal Peptide Receptor 1) (Homo sapiens, UniProt P32241).
T1 construct: host or cells: CHO-K1 (cAMP Hunter eXpress VIPR1 CHO-K1 GPCR assay kit)
T1 sequence (P32241 31-457): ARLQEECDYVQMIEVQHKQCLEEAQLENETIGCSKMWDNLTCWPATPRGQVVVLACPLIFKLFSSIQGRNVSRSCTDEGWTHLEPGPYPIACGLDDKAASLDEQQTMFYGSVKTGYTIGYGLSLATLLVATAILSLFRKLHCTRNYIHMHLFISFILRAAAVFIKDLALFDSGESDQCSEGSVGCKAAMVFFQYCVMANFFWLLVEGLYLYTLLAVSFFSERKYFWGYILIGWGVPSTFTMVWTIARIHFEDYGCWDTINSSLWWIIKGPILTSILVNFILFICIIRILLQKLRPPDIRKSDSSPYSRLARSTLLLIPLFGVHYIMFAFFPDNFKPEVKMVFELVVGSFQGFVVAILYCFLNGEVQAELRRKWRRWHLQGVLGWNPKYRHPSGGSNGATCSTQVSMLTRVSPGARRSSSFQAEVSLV
The series is described as follows: DiscoverX cAMP Hunter eXpress VIPR1 CHO-K1 GPCR assay. It counts as cell-based. Conditions: VIPR1 CHO-K1 cells. The source says: DiscoverX cAmP Hunter eXpress VIPRI CHO-K1 GPCR and GHRHR CHO-K1 GPCR assays kits were used. The DiscoverX kits contain naturally coupled GPCR cell lines designed to detect GPCR signaling through second messenger activation. This signaling involves a membrane bound enzyme called adenylate cyclase. […] receptors modulate cAMP by either inhibiting or stimulating adenylate cyclase, respectively. The DiscoverX cell lines included in the kits utilize the natural coupling status of the GPCR to monitor activation of […] receptors. Following ligand stimulation, the functional status of the GPCR is monitored by measuring cellular cAMP levels using a homogeneous, gain of signal competitive immunoassay based on Enzyme Fragment Complementation (EFC). The amount of EFC is measured by analysis with a fluorescent plate reader.
On the day before the assay, the DiscoverX cell lines were defrosted, plated into 384 well plates and allowed to incubate overnight. All the samples were diluted to 2 mM using 100% DMSO. The vials were sonicated and centrifuged to assure all peptides went into solution. The final volumes were small, 80-200 μl. An 80% purity and peptide content was assumed for all samples and dilutions were based on the molecular weights. On the day of the assay, the samples were diluted to 200 μM in water and then to 4 μM in DiscoverX assay buffer (supplemented with 0.1% BSA). Serial dilutions were performed on assay day, 16 dilutions from 1000 nM were run side by side in duplicate for each peptide for study. The assays were performed in the 384 well plates with the assistance of a CyBio Bi-Well 384 channel liquid handling robot. The samples were analyzed on a Tecan Ultra Evolution plate reader according to DiscoverX guidelines. The EC50 values were determined using GraphPad Prism software. The EC50 value is defined as the concentration of agonist that provokes a response halfway between the baseline and maximum response.
DiscoverX™ cAmP Hunter eXpress VIPR1 CHO-K1 GPCR and GHRHR CHO-K1 GPCR assay kits were used. On the day before the assay, the DiscoverX™ cell lines were defrosted, plated into 384 well plates and allowed to incubate overnight. All the samples were diluted to 2 mM using 100% DMSO. The vials were sonicated and centrifuged to assure all peptides went into solution. The final volumes were small, 80-200 μl. An 80% purity and peptide content was assumed for all samples and dilutions were based on the molecular weights. On the day of the assay, the samples were diluted to 200 μM in water and then to 4 μM in DiscoverX™ assay buffer (supplemented with 0.1% BSA). Serial dilutions were performed on assay day, 16 dilutions from 1000 nM were run side by side in duplicate for each peptide for study. The assays were performed in the 384 well plates with the assistance of a CyBio™ Bi-Well 384 channel liquid handling robot. The samples were analyzed on a Tecan™ Ultra Evolution plate reader according to DiscoverX™ guidelines. The EC50 values were determined using GraphPad™ Prism software. The EC50 value is defined as the concentration of agonist that provokes a response halfway between the baseline and maximum response. (+=>25 nM; ++=>10-25 nM; +++=>1-10 nM; ++++=>0.1-1 nM; +++++=<0.1 nM). […]

Series [4] addresses T2, human GHRH receptor (hGHRHR) (Homo sapiens, UniProt Q02643).
T2 construct: expressed in transfected cells; host or cells: Human 293 cells
T2 sequence (Q02643 23-423): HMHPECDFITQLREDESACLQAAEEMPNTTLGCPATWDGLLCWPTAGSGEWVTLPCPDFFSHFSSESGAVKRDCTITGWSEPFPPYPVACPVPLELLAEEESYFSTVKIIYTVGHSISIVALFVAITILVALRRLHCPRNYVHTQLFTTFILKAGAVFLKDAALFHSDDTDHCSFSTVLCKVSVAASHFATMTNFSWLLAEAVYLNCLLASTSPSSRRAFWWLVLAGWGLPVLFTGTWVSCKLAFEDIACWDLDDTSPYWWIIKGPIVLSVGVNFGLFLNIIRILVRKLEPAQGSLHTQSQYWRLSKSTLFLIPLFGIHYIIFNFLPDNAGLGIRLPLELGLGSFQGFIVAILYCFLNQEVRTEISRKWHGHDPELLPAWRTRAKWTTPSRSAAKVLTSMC
Description: GHRHR agonism measured by cAMP (HTRF) in human 293 cells expressing hGHRHR.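 Note: receptor expressed transiently or stably, cells stimulated in serum-free medium, EC50 from a non-linear dose-response fit, maximal response defined by reference GHRH stimulation.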 It counts as cell-based. The settings on record: 30 min at RT.

The target of series [5] is T3, GHRHR (Homo sapiens, UniProt Q02643).
T3 construct: host or cells: CHO-K1 (cAMP Hunter eXpress GHRHR CHO-K1 GPCR assay kit)
T3 sequence (Q02643 23-423): T2 sequence (Q02643 23-423)
Description: DiscoverX cAMP Hunter eXpress GHRHR CHO-K1 GPCR assay. It counts as cell-based.
Description: DiscoverX cAmP Hunter eXpress VIPRI CHO-K1 GPCR and GHRHR CHO-K1 GPCR assays kits were used. […] Following ligand stimulation, the functional status of the GPCR is monitored by measuring cellular cAMP levels using a homogeneous, gain of signal competitive immunoassay based on Enzyme Fragment Complementation (EFC). The amount of EFC is measured by analysis with a fluorescent plate reader.
DiscoverX™ cAmP Hunter eXpress VIPR1 CHO-K1 GPCR and GHRHR CHO-K1 GPCR assay kits were used. On the day before the assay, the DiscoverX™ cell lines were defrosted, plated into 384 well plates and allowed to incubate overnight. All the samples were diluted to 2 mM using 100% DMSO. The vials were sonicated and centrifuged to assure all peptides went into solution. The final volumes were small, 80-200 μl. An 80% purity and peptide content was assumed for all samples and dilutions were based on the molecular weights. On the day of the assay, the samples were diluted to 200 μM in water and then to 4 μM in DiscoverX™ assay buffer (supplemented with 0.1% BSA). Serial dilutions were performed on assay day, 16 dilutions from 1000 nM were run side by side in duplicate for each peptide for study. The assays were performed in the 384 well plates with the assistance of a CyBio™ Bi-Well 384 channel liquid handling robot. The samples were analyzed on a Tecan™ Ultra Evolution plate reader according to DiscoverX™ guidelines. The EC50 values were determined using GraphPad™ Prism software. The EC50 value is defined as the concentration of agonist that provokes a response halfway between the baseline and maximum response. […] The selectivity value is the concentration of agonist that provokes a response halfway between the baseline and maximum response in VIPR1 CHO-K1 cells divided by the concentration of agonist that provokes a response halfway between the baseline and maximum response in GHRHR CHO-K1 cells.

Where a SMILES comes first, the peptide text is derived from it. Bridges are numbered along the chain shown (N, C = ends). [ ]: non-standard residue; d: D form. S5 = C=CCCC[C@](C)(N)C(=O)O; Nle = CCCC[C@H](N)C(=O)O

What is called EC50 is the midpoint of the concentration-response curve. Low readings indicate higher potency in that assay, high ones lower potency in that assay. In the case of `CCCC[C@H](NC(=O)[C@@H](NC(=O)[C@]1(C)CCCC=CCCC[C@](C)(NC(=O)[C@H](CCCNC(=N)N)NC(=O)[C@H](C)NC(=O)[C@H](CO)NC(=O)[C@H](CC(C)C)NC(=O)[C@H](CCC(N)=O)NC(=O)CNC(=O)[C@H](CC(C)C)NC(=O)[C@@H](NC(=O)[C@H](CCCCN)NC(=O)[C@H](CCCNC(=N)N)NC(=O)[C@H](Cc2ccc(O)cc2)NC(=O)[C@H](CO)NC(=O)[C@]2(C)CCCC=CCCC[C@](C)(NC(=O)[C@H](CC(=O)O)NC(=O)[C@@H](C)NC(=O)[C@@H](N)Cc3ccc(O)cc3)C(=O)N[C@@H]([C@@H](C)CC)C(=O)N[C@@H](Cc3ccccc3)C(=O)N[C@@H]([C@@H](C)O)C(=O)N2)C(C)C)C(=O)N[C@@H](CC(C)C)C(=O)N[C@@H](CC(C)C)C(=O)N[C@@H](CCC(N)=O)C(=O)N1)[C@@H](C)CC)C(=O)N[C@@H](CO)C(=O)N[C@@H](CCCNC(=N)N)C(N)=O` [SP-3] (H-Y[dA]D[S5]IFT[S5]SYRKVLGQLSAR[S5]LLQ[S5]I[Nle]SR-NH2; staple 4-8, 21-25), the OD600 in series [1] (7 mg/mL) stood at 0.8; in series [1] (10 mg/mL) it was 1.0; in series [1] (12 mg/mL), 1.2; in series [1] (16 mg/mL), 1.2; in series [1] (21 mg/mL), 1.4; in series [1] (27 mg/mL), 1.6. The OD600 turned out to be 1.6 in series [1] (35 mg/mL); 1.7 in series [1] (46 mg/mL); 1.8 in series [1] (59 mg/mL); 1.7 in series [1] (77 mg/mL); 1.5 in series [1] (100 mg/mL). Moreover, the “Plasma Compatability” value in series [2] is reported as 0.9 mg/mL. In addition, the EC50 in series [3] fell in the range of 10 to 25 nM; in series [4], 1 to 10 nM; in series [5] (GHRHR CHO-K1 cells, cAMP) it was 0.1 to 1 nM. In addition, in series [5] (EC50 in VIPR1 CHO-K1 cells divided by EC50 in GHRHR CHO-K1 cells), the Selectivity entry is recorded as “+++++ (+++++=>50)”.
